Consider one molecule from patent publication US9636376B2, “Stable compositions of peptide epoxy ketones” (priority 2012, dated 2017).

In brackets after ≈: the same amount, converted by molar mass.

Series [1] relates to solid and hematologic tumor cells. The conditions noted are these: cited from earlier work.
For series [2], the system named is proteasome. The conditions noted are these: blood and tissue; cited from earlier work.
In series [3] the test system is models of multiple myeloma, hematologic, and solid tumors. The conditions noted are these: cited from earlier work.
The nature of series [4]: Effect of pH on saturation solubility of carfilzomib. It counts as physicochemical. The conditions noted are these: aqueous buffer, thermodynamic from solid. An excerpt: For instance, a buffer is typically used in the liquid pharmaceutical compositions of the invention to control the pH.

What is called solubility is the concentration that dissolves in the medium under given conditions.

With `CC(C)C[C@H](NC(=O)[C@H](CCc1ccccc1)NC(=O)CN1CCOCC1)C(=O)N[C@@H](Cc1ccccc1)C(=O)N[C@@H](CC(C)C)C(=O)[C@@]1(C)CO1` [Carfilzomib, (2S)—N—((S)-1-((S)-4-methyl-1-((R)-2-methyloxiran-2-yl)-1-oxopentan-2-ylcarbamoyl)-2-phenylethyl)-2-((S)-2-(2-morpholinoacetamido)-4-phenylbutanamido)-4-methylpentanamide], the “Activities in vitro in tumor cells” value in series [1] was “antiproliferative and proapoptotic activities”. In series [2], the “Effect on proteasome activity” value is on record as “inhibit proteasome activity”. In series [3], the “Effect on tumor growth” value is given as “delay tumor growth”. Moreover, the solubility worked out at 459 µg/mL (≈ 638 µM) in series [4] (1% L-cysteine solution, pH 1.7 (1% L-Cysteine)); 125 µg/mL (≈ 174 µM) in series [4] (pH 3.5 (15 mM Acetate Buffer)); 9 µg/mL (≈ 12.5 µM) in series [4] (pH 5.0 (15 mM Citrate Buffer)); 5 µg/mL (≈ 6.95 µM) in series [4] (pH 7.0 (15 mM Phosphate Buffer)).
